Tests used:
[1] = tested on: D425 and D458 medulloblastoma cells; experiment: Gene expression profiling and Gene Set Enrichment Analysis (GSEA) after treatment; type: cell-based, human
Description: D425 and D458 medulloblastoma cells were treated with 5 μM of PL, 5 μM of ALP or DMSO (control) for 48 h. RNA isolation was performed using the RNeasy Mini Kit (Qiagen) and gene expression data were generated using the Human PrimeView Arrays. Gene Set Enrichment Analysis (GSEA) was performed using gene sets from the National Cancer Institute (NCI), Gene Ontology (GO), Kyoto Encyclopedia of Genes and Genomes (KEGG), Protein Families (PFAM) and Biocarta pathway databases. Significant gene sets were identified (FDR<0.05; p<0.01) and visualized in Cytoscape and Enrichment Map software.
To identify downstream transcriptional events induced by ALP, genomic profiling of Group 3 medulloblastoma cell lines (D425 and D458) was conducted after treatment for 48 hours. […] Gene Set Enrichment Analysis (GSEA) was performed with gene sets compiled from the National Cancer Institute (NCI), Gene Ontology (GO), Kyoto Encyclopedia of Genes and Genomes (KEGG), Protein Families (PFAM) and Biocarta pathway databases. To visualize significant gene sets (FDR<0.05; p<0.01) as interaction networks, Cytoscape and Enrichment Map were used.

AKT pathway = experiment: Western blot, AKT pathway inhibition; type: cell-based; details: 48 h treatment, D458 and D425 cells
Description: (§1) Cell lysates were prepared by adding RIPA buffer (Sigma) containing protease inhibitors (F. Hoffman-La Roche AG), 0.2 M sodium orthovanadate, 0.2 M sodium pyrophosphate and 0.2 M sodium fluoride. The Pierce BCA Protein Assay Kit (Thermo Scientific) was used to determine protein concentration. […] The following antibodies were used: PARP (1:1,000; Cell Signaling), AKT (1:1,000; Cell Signaling), phospho-AKT (1:2,000; Ser473, Cell Signaling), α-tubulin (1:1,000; Cell Signaling), anti-mouse IgG conjugated to horseradish peroxidase (1:5,000; Amersham Biosciences) and anti-rabbit IgG conjugated to horseradish peroxidase (1:5,000; Cell Signaling).
(§2) To determine the mechanisms by which PL and ALP exert their antitumor effect, D425 and D458 medulloblastoma cells were treated with both drugs for 48 h.

[2] = tested on: D458 cerebellar xenografts; experiment: D458 intracranial medulloblastoma xenograft; type: in vivo, athymic nude mice; details: for medulloblastoma growth (bioluminescence imaging, H&E): D458-luciferase xenograft, vs DMSO-treated controls; for medulloblastoma growth (bioluminescence imaging, H&E) / survival: s.c. for 2 weeks; for survival / survival difference, log-rank test p: D458 xenograft; for survival: Kaplan-Meier; for survival difference, log-rank test p: vs vehicle control
Description: (§3) Medulloblastoma intracranial xenografts were established in 5-6 week old athymic nude mice (Charles River Laboratories). Medulloblastoma cells (250,000 D425 and D458 cells) were implanted in the right cerebellum of mice. Six days after cell inoculation, animals were randomized into treatment cohorts, which included subcutaneous injections with vehicle control (10% DMSO), PL (50 mg/kg, daily for 2 weeks), ALP (30 mg/kg, daily for 2 weeks), RTL (20 mg/kg, every other day for 2 weeks) or FZ (50 mg/Kg, daily for 2 weeks).
In animals bearing D458-GFP/Luciferase xenografts, bioluminescence imaging was performed at 6 days after intracranial injection. Mice with a detectable signal were included in the study and tumor growth was monitored at one-week intervals using the IVIS Spectrum Optical In-vivo Imaging System (Caliper Life Sciences).
(§4) Animals with progressive neurological signs or weight loss greater than 20% were euthanized and the brains harvested and fixed in 10% formalin.
(§5) The Kaplan-Meier estimate and a log-rank test were used to generate survival curves. Experiments were performed in triplicate and results were expressed as mean±SEM. Statistical analysis was performed using GraphPad Prism 5 Software.
The efficacy of PL, ALP, RTL and FZ in established medulloblastoma xenografts representative of Group 3 medulloblastomas was then determined. D458 cells expressing luciferase were implanted in the right cerebellum of nude mice and bioluminescence imaging was performed at 6 days post inoculation. Animals with a detectable signal were treated by subcutaneous injection with PL (50 mg/kg, daily for 2 weeks), ALP (30 mg/kg, daily for 2 weeks), RTL (20 mg/kg, every other day for 2 weeks), FZ (50 mg/Kg, daily for 2 weeks) or vehicle control (10% DMSO).

[3] = tested on: D425 cerebellar xenografts; experiment: D425 intracranial medulloblastoma xenograft; type: in vivo, athymic nude mice; details: for survival: Kaplan-Meier; for medulloblastoma growth (H&E): vs control group
Description: as §3, §4, §5

[4] = tested on: hf5281 fetal normal human brain cells; experiment: MTS cell proliferation assay in fetal normal human brain cells; type: cell-based; details: hf5281, up to the highest concentration tested of 10 μM
Description: (§6) FIG. 1 illustrates the cytotoxic effect of piperlongumine, alsterpaullone, rottlerin and flunarizine in Group 3 medulloblastoma cell lines. Established medulloblastoma cell lines (D425 and D458) and a fetal neural stem cell line (hf5281) were treated with various concentrations of (a) piperlongumine, (b) alsterpaullone, (c) rottlerin and (d) flunarizine for 48 hours. Cell viability was measured by MTS assay. Data represent mean of triplicates±SEM.
(§7) D425 and D458 cells were grown as suspension cultures and seeded in 96-well microplates at 10,000 cells per well. Fetal normal human brain cells (hf5281) were grown as an adherent culture and seeded in 96-well microplates at 4,000 and 5,000 cells per well. Cells were treated for 48 h with different concentrations of Piperlongumine (PL; INDOFINE Chemical Company), alsterpaullone (ALP; A, G. Scientific), rottlerin (RTL; A. G. Scientific) and flunarizine (FZ; Sigma) or DMSO (control). Cell viability was determined by MTS proliferation assay (3-(4,5-dimethylthiazol-2-yl)-5-(3-carboxymethoxyphenyl)-2-(4-sulfophenyl)-2H-tetrazolium) and the absorbance was measured at 490 nm (CellTiter 96 Aqueous One Solution Reagent; Promega). Three independent experiments were performed with 16 repeats per treatment condition.

[5] = tested on: D425 and D458 medulloblastoma cell lines; experiment: MTS cell proliferation assay in Group 3 medulloblastoma cell lines; type: cell-based; details: 48 hours treatment
Description: as §6, §7

[6] = tested on: D425 and D458 medulloblastoma cells; experiment: Western blot, induction of apoptosis; type: cell-based; details: 48 h treatment
Description: as §1, §2

[7] = D425 and D458, 5 μM, 48 h vs DMSO, rank 1
[8] = D425 and D458, 5 μM, 48 h vs DMSO, rank 2
[9] = D425 and D458, 5 μM, 48 h vs DMSO, rank 3
[10] = D425 and D458, 5 μM, 48 h vs DMSO, rank 4
[11] = D425 and D458, 5 μM, 48 h vs DMSO, rank 5
[12] = D425 and D458, 5 μM, 48 h vs DMSO, rank 6
[13] = D425 and D458, 5 μM, 48 h vs DMSO, rank 7
[14] = D425 and D458, 5 μM, 48 h vs DMSO, rank 8
[15] = D425 and D458, 5 μM, 48 h vs DMSO, rank 9
[16] = D425 and D458, 5 μM, 48 h vs DMSO, rank 10

## O=C1Cc2c([nH]c3ccc([N+](=O)[O-])cc23)-c2ccccc2N1 [alsterpaullone, 9-nitro-7,12-dihydroindolo-[3,2-d][1]benzazepin-6(5)-one]
[1]; [7]
  GSEA enriched pathway Cell Cycle Mitotic: Regulation: Down-Regulated
  GSEA enriched pathway Systemic Lupus Erythematosus: Regulation: Up-Regulated
[1]; [8]
  GSEA enriched pathway Mitotic M M G1 Phases: Regulation: Down-Regulated
  GSEA enriched pathway RNA Pol 1 Promoter Opening: Regulation: Up-Regulated
[1]; [9]
  GSEA enriched pathway Amyloids: Regulation: Up-Regulated
  GSEA enriched pathway Mitotic Prometaphase: Regulation: Down-Regulated
[1]; [10]
  GSEA enriched pathway DNA Replication: Regulation: Down-Regulated
  GSEA enriched pathway Packaging of Telomere Ends: Regulation: Up-Regulated
[1]; [11]
  GSEA enriched pathway G2 M Checkpoints: Regulation: Down-Regulated
  GSEA enriched pathway Olfactory Signaling Pathway: Regulation: Up-Regulated
[1]; [12]
  GSEA enriched pathway Autoimmune Thyroid Disease: Regulation: Up-Regulated
  GSEA enriched pathway Metabolism of Non Coding RNA: Regulation: Down-Regulated
[1]; [13]
  GSEA enriched pathway Activation of the Pre Replicative Complex: Regulation: Down-Regulated
  GSEA enriched pathway Asthma: Regulation: Up-Regulated
[1]; [14]
  GSEA enriched pathway Cell Cycle: Regulation: Down-Regulated
  GSEA enriched pathway Class A1 Rhodopsin Like Receptors: Regulation: Up-Regulated
[1]; [15]
  GSEA enriched pathway Activation of ATR in Response to Replication Stress: Regulation: Down-Regulated
  GSEA enriched pathway Immunoregulatory Interactions Between a lymphoid and a non lymphoid Cell: Regulation: Up-Regulated
[1]; [16]
  GSEA enriched pathway Cell Cycle Checkpoints: Regulation: Down-Regulated
  GSEA enriched pathway RNA Pol 1 Transcription: Regulation: Up-Regulated
[1]; D425 and D458, 48 hours, MYC, CDK7, RB1, CDK6, CCNB1, CDK5RAP2, CDK1, CDKN2C
  gene expression change vs DMSO-treated cells: down-regulation of genes involved in cell cycle
AKT pathway
  AKT pathway activation (Western blot): potently inhibited AKT pathway activation at lower concentrations than PL
[2]
  medulloblastoma growth (bioluminescence imaging, H&E): Marked reduction in medulloblastoma growth
  survival: significant increase in survival
  survival difference, log-rank test p: 0.0043
[3]
  survival: significantly increase survival
  medulloblastoma growth (H&E): reduce medulloblastoma growth
[4]
  reduction in cell proliferation: little reduction in cell proliferation
[5]
  concentration at which cell proliferation was reduced: 1 µM
[6]
  apoptosis (Western blot): induced apoptosis

## Fc1ccc(C(c2ccc(F)cc2)N2CCN(C/C=C/c3ccccc3)CC2)cc1 [flunarizine]
[2]
  survival: not able to prolong survival

## COc1cc(/C=C/C(=O)N2CCC=CC2=O)cc(OC)c1OC [piperlongumine]
AKT pathway
  AKT pathway activation (Western blot): AKT pathway inhibition
[2]
  medulloblastoma growth (bioluminescence imaging, H&E): Marked reduction in medulloblastoma growth
  survival: significant increase in survival
  survival difference, log-rank test p: 0.0011
[3]
  survival: significantly increase survival
  medulloblastoma growth (H&E): reduce medulloblastoma growth
[4]
  reduction in cell proliferation: little reduction in cell proliferation
[5]
  concentration at which cell proliferation was reduced: 5 µM
[6]
  apoptosis (Western blot): induction of apoptosis

## CC(=O)c1c(O)c(C)c(O)c(Cc2c(O)c3c(c(C(=O)/C=C/c4ccccc4)c2O)OC(C)(C)C=C3)c1O [rottlerin]
[2]
  medulloblastoma growth (bioluminescence imaging, H&E): Marked reduction in medulloblastoma growth
  survival: significant increase in survival
  survival difference, log-rank test p: 0.0262
[4]
  reduction in cell proliferation: little reduction in cell proliferation
[5]
  concentration at which cell proliferation was reduced: 5 µM

From patent US10413552B2, “Method of treating medulloblastoma” (THE HOSPITAL FOR SICK CHILDREN, priority 2015, dated 2019)
